Experimental data reported in patent US10092590B2, “Composition of HMB and ATP and methods of use” (Metabolic Technologies, Inc., priority 2012, dated 2018).

Legend:
[1] = Perceived Recovery Status (PRS) scale; format: in vivo, human; details: over the 12-week study
Protocol: (§1) Prior to the study, participants were randomly assigned to receive either 3 g per day of HMB Free Acid (HMB) (combined with food-grade orange flavors and sweeteners), 400 mg per day of ATP (PEAK ATP®; TSI, Inc.), a combination of both 3 g of HMB and 400 mg per day of ATP, or a placebo (food-grade orange flavors and sweeteners) divided equally into three servings daily with the first serving given 30 minutes prior to exercise and the remaining two servings daily with the mid-day and evening meals. On the non-training days participants were instructed to consume one serving with each of three separate meals. The supplementation was continued daily throughout the training and testing protocols. Each serving was formulated with 1 gram of HMB free acid to account for fill and emptying variation and achieve a minimum effective dosage of 0.800 grams. This dosage would be equivalent to a 1 gram Ca-HMB dosage.
Perceived Recovery Status (PRS) scale was measured at weeks 0, 4, 8, 9, 10, and 12 to assess subjective recovery during the training phases. The PRS scale consists of values between 0-10, with 0-2 being very poorly recovered and with anticipated declines in performance, 4-6 being low to moderately recovered and expected similar performance, and 8-10 representing high perceived recovery with expected increases in performance.

[2] = test system: cortisol; assay: Serum cortisol, ELISA; format: in vivo, human; details: week 9 (overreaching); mean ± SEM
Protocol: as §1, with “dosage. […]” for “dosage.”
(§2) Samples were thawed one time and analyzed in duplicate for each analyte. […] All hormones were measured in the same assay on the same day to avoid compounded interassay variance. […] Serum creatine kinase (CK) was measured using colorimetric procedures at 340 nm (Diagnostics Chemicals, Oxford, Conn.). Twenty-four hour urine collections were made and 3-methylhistine was determined by previously described methods (Rathmacher et al 1992 and Wilson et al, 2013).

[3] = Skeletal muscle hypertrophy, ultrasonography quadriceps muscle thickness (VL and VI); format: in vivo, human; details: week 8 of study
[4] = test system: skeletal muscle protein synthesis; details: acute ingestion of 2.4 grams; cited from earlier work
[5] = Body composition by dual x-ray absorptiometry (weight, lean body mass, fat); format: in vivo, human
[6] = test system: creatine kinase (CK); assay: Serum creatine kinase (muscle damage), colorimetric; format: in vivo, human; details: week 9 (overreaching); mean ± SEM
Protocol: as §1, with “dosage. […]” for “dosage.”
as §2

[7] = test system: total testosterone; assay: Serum total testosterone, ELISA; format: in vivo, human; details: week 9 (overreaching); mean ± SEM
Protocol: as §1, with “dosage. […]” for “dosage.”
as §2

| Structure (SMILES) | effect on PRS [1] | Cortisol [2] | Quad (quadriceps muscle thickness) [3] | decrease in protein breakdown [4] | increase in skeletal muscle protein synthesis [4] | DXA LBM ([5]; week 4 of study) | DXA Fat ([5]; week 8 of study) | DXA LBM ([5]; week 8 of study) | CK [6] | Total Testosterone [7] |
| --- | --- | --- | --- | --- | --- | --- | --- | --- | --- | --- |
| Nc1ncnc2c1ncn2[C@@H]1O[C@H](COP(=O)(O)OP(=O)(O)OP(=O)(O)O)[C@@H](O)[C@H]1O [ATP, Adenosine-5′-triphosphate] | no main effect | – | – | – | – | – | – | – | – | – |
| CC(C)(O)CC(=O)O [HMB-FA, β-hydroxy-β-methylbutyric acid] | – | 19.6 ± 1.1 µg/dL | 56.0 ± 1.4 mm | −56% | +70% | 69.2 ± 2.7 kg | 15.9 ± 1.5 % | 71.3 ± 2.7 kg | 288 ± 18 IU/L | 752 ± 61 ng/dL |
